Results published in ChEMBL document CHEMBL1201862, “PubChem BioAssay data set” (2004).
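Values below derive from 48-hour exposures of cells grown in 96-well plates, with endpoints linearly interpolated between the two concentrations bracketing the appropriate inhibition level. GI50 marks 50% less growth.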 Active and inactive are the calls of the source. No stated cut-off is given here; in the data, active = GI50 up to about 1.1 µM and inactive = higher.

Experiments:
Assay in all cases: NCI-60 cell line screen, 48 h
SNB-78 = system: SNB-78
ACHN = system: ACHN
RPMI-8226 = system: RPMI-8226
HOP-92 = system: HOP-92
NCI-H226 = system: NCI-H226
OVCAR-4 = system: OVCAR-4
RXF 393 = system: RXF 393
TK-10 = system: TK-10
M19-MEL = system: M19-MEL
HCC 2998 = system: HCC 2998
SF-295 = system: SF-295
HOP-62 = system: HOP-62
SF-539 = system: SF-539
HCT-116 = system: HCT-116
OVCAR-8 = system: OVCAR-8
OVCAR-3 = system: OVCAR-3
KM-20L2 = system: KM-20L2
IGROV-1 = system: IGROV-1
RXF 631 = system: RXF 631
SF-268 = system: SF-268
HL-60 = system: HL-60
SNB-19 = system: SNB-19
Malme-3M = system: Malme-3M
UO-31 = system: UO-31
A498 = system: A498
786-0 = system: 786-0
MOLT-4 = system: MOLT-4
SK-OV-3 = system: SK-OV-3
SK-MEL-28 = system: SK-MEL-28
HT-29 = system: HT-29
LOX IMVI = system: LOX IMVI
NCI-H23 = system: NCI-H23
OVCAR-5 = system: OVCAR-5
KM12 = system: KM12
SW-620 = system: SW-620
NCI-H460 = system: NCI-H460
LXFL 529 = system: LXFL 529
COLO 205 = system: COLO 205
K562 = system: K562
HCT-15 = system: HCT-15
SK-MEL-2 = system: SK-MEL-2
DMS-273 = system: DMS-273
DLD-1 = system: DLD-1
NCI-H522 = system: NCI-H522
DMS-114 = system: DMS-114
EKVX = system: EKVX
CAKI-1 = system: CAKI-1
HOP-18 = system: HOP-18
M14 = system: M14
UACC-257 = system: UACC-257
SK-MEL-5 = system: SK-MEL-5
A549 = system: A549
SN12C = system: SN12C
U-251 = system: U-251
UACC-62 = system: UACC-62
SNB-75 = system: SNB-75
CCRF-CEM = system: CCRF-CEM
SR = system: SR

`Clc1ccc(CCc2ccncn2)c(Cl)c1` was tested. Which GI50 (SNB-78) did it give?
Its GI50 is 61.5 µM (inactive).

And the GI50 (ACHN)?
The GI50 was > 100 µM (inactive).

What about the GI50 (RPMI-8226) of the same compound?
Its GI50 is 25.5 µM (inactive).

And the GI50 (HOP-92)?
Its GI50 is 54.6 µM (inactive).

What about the GI50 (NCI-H226) of the same compound?
Its GI50 is 60.5 µM (inactive).

What about the GI50 (OVCAR-4) of the same compound?
Its GI50 is > 100 µM (inactive).

And the GI50 (RXF 393)?
Its GI50 is 27 µM (inactive).

What about the GI50 (TK-10) of the same compound?
The GI50 was > 100 µM (inactive).

And the GI50 (M19-MEL)?
Its GI50 is 47.8 µM (inactive).

What about the GI50 (HCC 2998) of the same compound?
Its GI50 is > 100 µM (inactive).

And the GI50 (SF-295)?
Its GI50 is 61.4 µM (inactive).

What about the GI50 (HOP-62) of the same compound?
Its GI50 is > 100 µM (inactive).

What about the GI50 (SF-539) of the same compound?
Its GI50 is > 100 µM (inactive).

And the GI50 (HCT-116)?
The GI50 was 52.5 µM (inactive).

And the GI50 (OVCAR-8)?
The GI50 was 97.3 µM (inactive).

And the GI50 (OVCAR-3)?
Its GI50 is 39.5 µM (inactive).

What about the GI50 (KM-20L2) of the same compound?
The GI50 was 73.5 µM (inactive).

And the GI50 (IGROV-1)?
The GI50 was > 100 µM (inactive).

And the GI50 (RXF 631)?
Its GI50 is 60.1 µM (inactive).

What about the GI50 (SF-268) of the same compound?
Its GI50 is 77.3 µM (inactive).

And the GI50 (HL-60)?
Its GI50 is 30.1 µM (inactive).

And the GI50 (SNB-19)?
The GI50 was 35.6 µM (inactive).

What about the GI50 (Malme-3M) of the same compound?
Its GI50 is 58.9 µM (inactive).

What about the GI50 (UO-31) of the same compound?
The GI50 was 38.5 µM (inactive).

And the GI50 (A498)?
The GI50 was 86.5 µM (inactive).

What about the GI50 (786-0) of the same compound?
The GI50 was > 100 µM (inactive).

And the GI50 (MOLT-4)?
Its GI50 is 29.3 µM (inactive).

And the GI50 (SK-OV-3)?
The GI50 was > 100 µM (inactive).

And the GI50 (SK-MEL-28)?
The GI50 was > 100 µM (inactive).

What about the GI50 (HT-29) of the same compound?
The GI50 was > 100 µM (inactive).

And the GI50 (LOX IMVI)?
Its GI50 is > 100 µM (inactive).

What about the GI50 (NCI-H23) of the same compound?
The GI50 was 49.3 µM (inactive).

And the GI50 (OVCAR-5)?
Its GI50 is > 100 µM (inactive).

And the GI50 (KM12)?
Its GI50 is 63 µM (inactive).

And the GI50 (SW-620)?
The GI50 was > 100 µM (inactive).

What about the GI50 (NCI-H460) of the same compound?
Its GI50 is > 100 µM (inactive).

What about the GI50 (LXFL 529) of the same compound?
The GI50 was 36.3 µM (inactive).

What about the GI50 (COLO 205) of the same compound?
Its GI50 is 64.9 µM (inactive).

And the GI50 (K562)?
Its GI50 is 63.8 µM (inactive).

What about the GI50 (HCT-15) of the same compound?
The GI50 was 79.6 µM.

What about the GI50 (SK-MEL-2) of the same compound?
The GI50 was > 100 µM (inactive).

And the GI50 (DMS-273)?
The GI50 was 97.5 µM (inactive).

What about the GI50 (DLD-1) of the same compound?
Its GI50 is > 100 µM (inactive).

And the GI50 (NCI-H522)?
Its GI50 is 37.7 µM (inactive).

And the GI50 (DMS-114)?
The GI50 was 30.1 µM (inactive).

What about the GI50 (EKVX) of the same compound?
The GI50 was 9.68 µM (inactive).

And the GI50 (CAKI-1)?
The GI50 was 50.2 µM (inactive).

And the GI50 (HOP-18)?
The GI50 was 33.3 µM (inactive).

What about the GI50 (M14) of the same compound?
The GI50 was > 100 µM (inactive).

What about the GI50 (UACC-257) of the same compound?
The GI50 was 38.1 µM (inactive).

And the GI50 (SK-MEL-5)?
The GI50 was 19.5 µM (inactive).

And the GI50 (A549)?
The GI50 was > 100 µM (inactive).

What about the GI50 (SN12C) of the same compound?
The GI50 was > 100 µM (inactive).

And the GI50 (U-251)?
Its GI50 is 41.5 µM (inactive).

And the GI50 (UACC-62)?
Its GI50 is 53.2 µM (inactive).

What about the GI50 (SNB-75) of the same compound?
The GI50 was 68.5 µM (inactive).

Which results are given for `O=C(Nc1ccccc1[N+](=O)[O-])C(=O)C(C(=O)c1ccccc1-c1ccccc1)C1OC(=O)c2ccccc21` (stereo not drawn)?
GI50 (SNB-78): 20.1 µM (inactive); GI50 (ACHN): 30.8 µM (inactive); GI50 (RPMI-8226): 18.5 µM (inactive); GI50 (NCI-H226): 6.1 µM (inactive); GI50 (OVCAR-4): 24.1 µM (inactive); GI50 (RXF 393): 12.1 µM (inactive); GI50 (TK-10): 24 µM (inactive); GI50 (M19-MEL): 12.6 µM (inactive); GI50 (HCC 2998): 14.8 µM (inactive); GI50 (SF-295): 16.6 µM (inactive); GI50 (HOP-62): 17.5 µM (inactive); GI50 (SF-539): 11.6 µM (inactive); GI50 (HCT-116): 18.2 µM (inactive); GI50 (OVCAR-8): 14.8 µM (inactive); GI50 (OVCAR-3): 14 µM (inactive); GI50 (KM-20L2): 18.2 µM (inactive); GI50 (IGROV-1): 23.7 µM (inactive); GI50 (RXF 631): 13.4 µM (inactive); GI50 (SF-268): 14.3 µM (inactive); GI50 (HL-60): 14.7 µM (inactive); GI50 (SNB-19): 13.6 µM (inactive); GI50 (Malme-3M): 13 µM (inactive); GI50 (UO-31): 15.6 µM (inactive); GI50 (A498): 21.7 µM (inactive); GI50 (786-0): 14.7 µM (inactive); GI50 (MOLT-4): 16 µM (inactive); GI50 (SK-OV-3): 30.8 µM (inactive); GI50 (SK-MEL-28): 18.2 µM (inactive); GI50 (HT-29): 24 µM (inactive); GI50 (LOX IMVI): 16.3 µM (inactive); GI50 (NCI-H23): 17.9 µM (inactive); GI50 (OVCAR-5): 20.3 µM (inactive); GI50 (KM12): 16.2 µM (inactive); GI50 (SW-620): 18.5 µM (inactive); GI50 (NCI-H460): 15.9 µM (inactive); GI50 (LXFL 529): 11 µM (inactive); GI50 (COLO 205): 16.1 µM (inactive); GI50 (K562): 17.2 µM (inactive); GI50 (HCT-15): 15.9 µM; GI50 (SK-MEL-2): 16.7 µM (inactive); GI50 (DMS-273): 14.3 µM (inactive); GI50 (DLD-1): 21.4 µM (inactive); GI50 (NCI-H522): 12.5 µM (inactive); GI50 (DMS-114): 13.6 µM (inactive); GI50 (EKVX): 20.2 µM (inactive); GI50 (CAKI-1): 35.6 µM (inactive); GI50 (HOP-18): 14.1 µM (inactive); GI50 (M14): 15.5 µM (inactive); GI50 (UACC-257): 16.6 µM (inactive); GI50 (CCRF-CEM): 13.5 µM (inactive); GI50 (SK-MEL-5): 18 µM (inactive); GI50 (A549): 24.5 µM (inactive); GI50 (SN12C): 14.6 µM (inactive); GI50 (U-251): 11.6 µM (inactive); GI50 (UACC-62): 16 µM (inactive); GI50 (SR): 8.43 µM (inactive); GI50 (SNB-75): 16.9 µM (inactive)
